Data reported in article PMC3759264 (The Journal of organic chemistry, 2013).

Tests used:
M. tuberculosis H37Rv = M. tuberculosis H37Rv MIC assay; type: cell-based, Mycobacterium tuberculosis; settings: Mtb H37Rv; for MIC50 –Fe: iron-deficient; for MIC50 +Fe: iron-replete
MbtA [1] = biological target: T1, MbtA (Mycobacterium tuberculosis, UniProt P71716); type: binding
MbtA [2] = biological target: T1, MbtA; type: biochemical; settings: read-out: Ki^app MbtA; 250 µM salicylic acid, 10 mM ATP, 1 mM PPi, 7 nM MbtA

T1 sequence (P71716 whole entry): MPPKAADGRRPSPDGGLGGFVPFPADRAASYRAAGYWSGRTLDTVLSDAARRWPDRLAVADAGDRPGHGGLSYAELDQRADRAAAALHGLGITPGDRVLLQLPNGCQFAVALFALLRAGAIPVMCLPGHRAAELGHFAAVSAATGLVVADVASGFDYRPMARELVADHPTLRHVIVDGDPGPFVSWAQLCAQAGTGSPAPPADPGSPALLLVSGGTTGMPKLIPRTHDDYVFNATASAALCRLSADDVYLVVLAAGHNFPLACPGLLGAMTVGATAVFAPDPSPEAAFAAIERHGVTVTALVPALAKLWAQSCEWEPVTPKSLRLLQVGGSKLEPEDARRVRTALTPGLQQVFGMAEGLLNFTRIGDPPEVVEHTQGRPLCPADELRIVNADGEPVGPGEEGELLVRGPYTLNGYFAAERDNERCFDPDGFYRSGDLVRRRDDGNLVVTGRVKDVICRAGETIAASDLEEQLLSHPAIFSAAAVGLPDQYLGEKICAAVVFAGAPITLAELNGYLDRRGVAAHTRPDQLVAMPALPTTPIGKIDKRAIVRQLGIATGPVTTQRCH

Question: For `Nc1ncnc2c1ncn2[C@@H]1O[C@H](CNS(=O)(=O)c2noc3ccccc3c2=O)[C@@H](O)[C@H]1O` [Compound 3, 5′-Amino-5′-deoxy-5′-N-[(4-oxo-4H-benzo[e][1,2]oxazin-3-yl)sulfonyl]adenosine], which “MIC50 –Fe” value (M. tuberculosis H37Rv) is on record?
Answer: >50 µM

Question: And the “MIC50 +Fe” value (M. tuberculosis H37Rv)?
Answer: >50 µM

Question: What about the “fold increase in potency (KD, MbtA) relative to chromone 1” value (MbtA [1]) of the same molecule?
Answer: ~10 fold

Question: For `Nc1ncnc2c1ncn2[C@@H]1O[C@H](CNS(=O)(=O)c2c[nH]c3ccccc3c2=O)[C@@H](O)[C@H]1O` [Compound 2, 5′-Amino-5′-deoxy-5′-N-[(quinol-4-on-3-yl)sulfonyl]adenosine], which Ki (MbtA [2]) is on record?
Answer: 120 ± 20 nM

Question: What about the “MIC50 –Fe” value (M. tuberculosis H37Rv) of the same molecule?
Answer: >50 µM

Question: What about the “MIC50 +Fe” value (M. tuberculosis H37Rv) of the same molecule?
Answer: >50 µM

Question: For `Nc1ncnc2c1ncn2[C@@H]1O[C@H](CNS(=O)(=O)c2coc3ccccc3c2=O)[C@@H](O)[C@H]1O` [Compound 1, 5′-Amino-5′-N-[(chromon-3-yl)sulfonyl]-5′-deoxy-adenosine], which “MIC50 –Fe” value (M. tuberculosis H37Rv) is on record?
Answer: >50 µM

Question: And the “MIC50 +Fe” value (M. tuberculosis H37Rv)?
Answer: >50 µM

Question: How did the “MIC50 –Fe” value (M. tuberculosis H37Rv) turn out when `Nc1ncnc2c1ncn2[C@@H]1O[C@H](CNS(=O)(=O)c2coc3c(O)cccc3c2=O)[C@@H](O)[C@H]1O` [Compound 4, 5′-Amino-5′-deoxy-5′-N-[(8-hydroxychromon-3-yl)sulfonyl]adenosine] was run?
Answer: >50 µM

Question: And the “MIC50 +Fe” value (M. tuberculosis H37Rv)?
Answer: >50 µM

Question: What about the “fold loss of potency (KD, MbtA) relative to chromone 1” value (MbtA [1]; FP assay) of the same molecule?
Answer: 80 fold
